Laboratory results from publication PMC7914897, “Cytotoxic Potential of a-Azepano- and 3-Amino-3,4-SeCo-Triterpenoids” (International Journal of Molecular Sciences, 2021).

What was measured:
HOP-62 (NSC lung cancer) = experiment: NCI-60 screen (SRB, 48 h); settings: Homo sapiens
Breast cancer subpanel = experiment: NCI-60 screen, subpanel; settings: Homo sapiens
MOLT-4 (Leukemia) = experiment: NCI-60 screen (SRB, 48 h); settings: Homo sapiens
SK-MEL-28 (Melanoma) = experiment: NCI-60 screen (SRB, 48 h); settings: Homo sapiens
OVCAR-5 (Ovarian cancer) = experiment: NCI-60 screen (SRB, 48 h); settings: Homo sapiens
U251 (CNS cancer) = experiment: NCI-60 screen (SRB, 48 h)
[1] = system: MDA-MB-468 (Breast cancer); experiment: cells; settings: Homo sapiens
SK-MEL-5 (Melanoma) = experiment: NCI-60 screen (SRB, 48 h); settings: Homo sapiens
RPMI-8226 (Leukemia) = experiment: NCI-60 screen (SRB, 48 h); settings: Homo sapiens
MCF7 (Breast cancer) = experiment: NCI-60 screen (SRB, 48 h); settings: Homo sapiens
[2] = system: NCI-H460 (NSC lung cancer); experiment: NCI-60 screen (SRB, 48 h); settings: Homo sapiens
[3] = system: MDA-MB-31/ATCC (Breast cancer); experiment: NCI-60 screen (SRB, 48 h); settings: Homo sapiens
SK-OV-3 (Ovarian cancer) = experiment: NCI-60 screen (SRB, 48 h); settings: Homo sapiens
MDA-MB-435 (Melanoma) = experiment: NCI-60 screen (SRB, 48 h); assay type: cell-based; settings: Homo sapiens
Renal Cancer subpanel = experiment: NCI-60 screen, subpanel; settings: Homo sapiens
Prostate cancer subpanel = experiment: NCI-60 screen, subpanel; settings: Homo sapiens
COLO 205 (Colon cancer) = experiment: NCI-60 screen (SRB, 48 h)
786-0 (Renal cancer) = experiment: NCI-60 screen (SRB, 48 h); settings: Homo sapiens
EKVX (NSC lung cancer) = experiment: NCI-60 screen (SRB, 48 h); settings: Homo sapiens
MALME-3M (Melanoma) = experiment: NCI-60 screen (SRB, 48 h); settings: Homo sapiens
Leukemia subpanel = experiment: cells; settings: Homo sapiens
SNB-19 (CNS cancer) = experiment: NCI-60 screen (SRB, 48 h); settings: Homo sapiens
SK-MEL-2 (Melanoma) = experiment: NCI-60 screen (SRB, 48 h); settings: Homo sapiens
HCC-2998 (Colon cancer) = experiment: NCI-60 screen (SRB, 48 h); settings: Homo sapiens
[4] = system: NCI-H226 (NSC lung cancer); experiment: NCI-60 screen (SRB, 48 h); settings: Homo sapiens
Melanoma subpanel = experiment: NCI-60 screen, subpanel; settings: Homo sapiens
OVCAR-3 (Ovarian cancer) = experiment: cells; settings: Homo sapiens
SNB-75 (CNS cancer) = experiment: NCI-60 screen (SRB, 48 h); settings: Homo sapiens

CC(C)=C1CCC=C2CC[C@]3(C)[C@H](CC[C@@H]4[C@@]5(C)CCCNC(C)(C)[C@@H]5CC[C@]43C)[C@H]21 [Compound 9]
GI50 (HOP-62 (NSC lung cancer); HOP-62): 1.7 µM
IC (TGI) (HOP-62 (NSC lung cancer); HOP-62, 48 h, read-out: TGI): 3.25 µM
IC (TGI) (Breast cancer subpanel; 48 h, read-out: TGI MG_MID): 3.49 µM
GI50 (Breast cancer subpanel; read-out: GI50 MG_MID): 1.72 µM
CC50 (Breast cancer subpanel; read-out: LC50 MG_MID): 7.06 µM
GI50 (MOLT-4 (Leukemia); MOLT-4): 1.59 µM
IC (TGI) (MOLT-4 (Leukemia); MOLT-4, 48 h, read-out: TGI): 3.7 µM
GI50 (SK-MEL-28 (Melanoma); SK-MEL-28): 1.81 µM
IC (TGI) (SK-MEL-28 (Melanoma); SK-MEL-28, 48 h, read-out: TGI): 3.32 µM
CC50 (SK-MEL-28 (Melanoma); SK-MEL-28, read-out: LC50): 6.11 µM
GI50 (OVCAR-5 (Ovarian cancer); OVCAR-5): 1.67 µM
IC (TGI) (OVCAR-5 (Ovarian cancer); OVCAR-5, 48 h, read-out: TGI): 3.07 µM
CC50 (OVCAR-5 (Ovarian cancer); OVCAR-5, read-out: LC50): 5.65 µM
GI50 (U251 (CNS cancer); Homo sapiens, U-251): 1.69 µM
IC (TGI) (U251 (CNS cancer); Homo sapiens, U-251, 48 h, read-out: TGI): 3.17 µM
Growth % of the Most Sensitive Cell Lines (U251 (CNS cancer); U251, 1 dose 10 µM): −90.81%
GI50 ([1]; MDA-MB-468): 1.68 µM
IC (TGI) ([1]; MDA-MB-468, 48 h, read-out: TGI): 3.3 µM
CC50 ([1]; MDA-MB-468, read-out: LC50): 6.5 µM
GI50 (SK-MEL-5 (Melanoma); SK-MEL-5): 1.7 µM
IC (TGI) (SK-MEL-5 (Melanoma); SK-MEL-5, 48 h, read-out: TGI): 3.08 µM
CC50 (SK-MEL-5 (Melanoma); SK-MEL-5, read-out: LC50): 5.56 µM
GI50 (RPMI-8226 (Leukemia); RPMI-8226): 2.06 µM
IC (TGI) (RPMI-8226 (Leukemia); RPMI-8226, 48 h, read-out: TGI): 4.1 µM
GI50 (MCF7 (Breast cancer); MCF7): 1.77 µM
IC (TGI) (MCF7 (Breast cancer); MCF7, 48 h, read-out: TGI): 3.54 µM
GI50 ([2]; NCI-H460): 1.48 µM
IC (TGI) ([2]; NCI-H460, 48 h, read-out: TGI): 3.09 µM
CC50 ([2]; NCI-H460, read-out: LC50): 6.45 µM
GI50 [3]: 1.8 µM
IC (TGI) ([3]; 48 h, read-out: TGI): 3.47 µM
CC50 ([3]; read-out: LC50): 6.69 µM
GI50 (SK-OV-3 (Ovarian cancer); SK-OV-3): 1.89 µM
IC (TGI) (SK-OV-3 (Ovarian cancer); SK-OV-3, 48 h, read-out: TGI): 3.5 µM
CC50 (SK-OV-3 (Ovarian cancer); SK-OV-3, read-out: LC50): 6.46 µM
GI50 (MDA-MB-435 (Melanoma); MDA-MB-435): 1.85 µM
IC (TGI) (MDA-MB-435 (Melanoma); MDA-MB-435, 48 h, read-out: TGI): 3.28 µM
CC50 (MDA-MB-435 (Melanoma); MDA-MB-435, read-out: LC50 (the source's name)): 5.81 µM
IC (TGI) (Renal Cancer subpanel; 48 h, read-out: TGI MG_MID): 3.25 µM
GI50 (Renal Cancer subpanel; read-out: GI50 MG_MID): 1.72 µM
CC50 (Renal Cancer subpanel; read-out: LC50 MG_MID): 6.03 µM
IC (TGI) (Prostate cancer subpanel; 48 h, read-out: TGI MG_MID): 3.29 µM
GI50 (Prostate cancer subpanel; read-out: GI50 MG_MID): 1.78 µM
CC50 (Prostate cancer subpanel; read-out: LC50 MG_MID): 6.08 µM
Growth % of the Most Sensitive Cell Lines (COLO 205 (Colon cancer); COLO 205, 1 dose 10 µM): −93.54%
GI50 (COLO 205 (Colon cancer); Homo sapiens, COLO 205): 1.48 µM
IC (TGI) (COLO 205 (Colon cancer); Homo sapiens, COLO 205, 48 h, read-out: TGI): 2.97 µM
GI50 (786-0 (Renal cancer); 786-0): 1.71 µM
IC (TGI) (786-0 (Renal cancer); 786-0, 48 h, read-out: TGI): 3.48 µM
GI50 (EKVX (NSC lung cancer)): 1.74 µM
IC (TGI) (EKVX (NSC lung cancer); 48 h, read-out: TGI): 3.38 µM
CC50 (EKVX (NSC lung cancer); read-out: LC50): 6.56 µM
GI50 (MALME-3M (Melanoma)): 1.77 µM
IC (TGI) (MALME-3M (Melanoma); 48 h, read-out: TGI): 3.48 µM
CC50 (MALME-3M (Melanoma); read-out: LC50): 6.84 µM
IC (TGI) (Leukemia subpanel; 48 h, read-out: TGI MG_MID): 3.59 µM
GI50 (Leukemia subpanel; read-out: GI50 MG_MID): 1.55 µM
CC50 (Leukemia subpanel; read-out: LC50 MG_MID): 7.19 µM
GI50 (SNB-19 (CNS cancer); SNB-19): 1.81 µM
IC (TGI) (SNB-19 (CNS cancer); SNB-19, 48 h, read-out: TGI): 3.36 µM
GI50 (SK-MEL-2 (Melanoma); SK-MEL-2): 1.81 µM
IC (TGI) (SK-MEL-2 (Melanoma); SK-MEL-2, 48 h, read-out: TGI): 3.48 µM
CC50 (SK-MEL-2 (Melanoma); SK-MEL-2, read-out: LC50): 6.69 µM
GI50 (HCC-2998 (Colon cancer); HCC 2998): 1.74 µM
IC (TGI) (HCC-2998 (Colon cancer); HCC 2998, 48 h, read-out: TGI): 3.19 µM
GI50 ([4]; NCI-H226): 1.79 µM
IC (TGI) ([4]; NCI-H226, 48 h, read-out: TGI): 3.54 µM
IC (TGI) (Melanoma subpanel; 48 h, read-out: TGI MG_MID): 3.3 µM
GI50 (Melanoma subpanel; read-out: GI50 MG_MID): 1.77 µM
CC50 (Melanoma subpanel; read-out: LC50 MG_MID): 6.17 µM
GI50 (OVCAR-3 (Ovarian cancer); OVCAR-3): 1.91 µM
IC (TGI) (OVCAR-3 (Ovarian cancer); OVCAR-3, 48 h, read-out: TGI): 3.37 µM
CC50 (OVCAR-3 (Ovarian cancer); OVCAR-3, read-out: LC50): 5.93 µM
GI50 (SNB-75 (CNS cancer); SNB-75): 1.98 µM
IC (TGI) (SNB-75 (CNS cancer); SNB-75, 48 h, read-out: TGI): 3.84 µM
CC50 (SNB-75 (CNS cancer); SNB-75, read-out: LC50): 7.44 µM
